One molecule from article PMC7721636 (Metabolic Engineering Communications, 2020) can be followed below.

This test deals with T1, Prk (Synechocystis sp. PCC 6803, UniProt P37101).
T1 sequence (P37101 1-332): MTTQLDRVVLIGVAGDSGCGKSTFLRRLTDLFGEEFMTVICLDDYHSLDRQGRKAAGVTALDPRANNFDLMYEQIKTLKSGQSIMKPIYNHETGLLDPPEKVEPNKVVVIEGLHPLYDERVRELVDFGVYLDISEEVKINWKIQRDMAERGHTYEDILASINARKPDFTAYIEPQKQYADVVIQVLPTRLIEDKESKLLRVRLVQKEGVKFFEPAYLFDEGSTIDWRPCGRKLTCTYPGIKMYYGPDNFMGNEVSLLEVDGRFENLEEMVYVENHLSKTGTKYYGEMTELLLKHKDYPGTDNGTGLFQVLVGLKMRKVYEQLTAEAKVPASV
As to the kind of experiment: coupled pyruvate kinase/lactate dehydrogenase assay, NADH at […] nm. It counts as biochemical.

Molecules are shown by their SMILES.

What is called Ki is a dissociation constant, usually derived from enzyme kinetics or from competition with a known ligand. Lower therefore signals tighter binding. As for `O=C(O)C[C@H](C(=O)O)[C@@H](O)C(=O)O` [isocitrate], the Ki worked out at 1.45 ± 0.13 mM.
